For assay [1], the target named is T1, H3 receptors (Cavia porcellus, UniProt Q9JI35).
T1 construct: The source of the H3 receptors in this experiment was guinea pig brain; from tissue; host or cells: guinea pig brain membranes
In words: H3 Receptor Binding Assay. The settings on record: guinea pig brain membranes; 3 nM [3H]R-α-methylhistamine or 3 nM [3H]Nα-methylhistamine; 50 mM Tris pH 7.5, 30° C., 30 min. The protocol: The source of the H3 receptors in this experiment was guinea pig brain. The animals weighed 400-600 g. The brain tissue was homogenized using a Polytron in a solution of 50 mM Tris, pH 7.5. The final concentration of tissue in the homogenization buffer was 10% w/v. The homogenates were centrifuged at 1,000×g for 10 min. in order to remove clumps of tissue and debris. The resulting supernatants were then centrifuged at 50,000×g for 20 min. in order to sediment the membranes, which were next washed three times in homogenization buffer (50,000×g for 20 min. each). The membranes were frozen and stored at -70° C. until needed.
All compounds to be tested were dissolved in DMSO and then diluted into the binding buffer (50 mM Tris, pH 7.5) such that the final concentration was 2 μg/ml with 0.1% DMSO. Membranes were then added (400 μg of protein) to the reaction tubes. The reaction was started by the addition of 3 nM [^3 H]R-α-methylhistamine (8.8 Ci/mmol) or 3 nM [^3 H]N^α -methylhistamine (80 Ci/mmol) and continued under incubation at 30° C. for 30 min. Bound ligand was separated from unbound ligand by filtration, and the amount of radioactive ligand bound to the membranes was quantitated by liquid scintillation spectrometry. All incubations were performed in duplicate and the standard error was always less than 10%. Compounds that inhibited more than 70% of the specific binding of radioactive ligand to the receptor were serially diluted to determine a Ki (nM).

The subject of assay [2] is histamine H3 receptor. The note with it: mice, electrically induced convulsions; cited from earlier work.

T1 sequence (Q9JI35 whole entry): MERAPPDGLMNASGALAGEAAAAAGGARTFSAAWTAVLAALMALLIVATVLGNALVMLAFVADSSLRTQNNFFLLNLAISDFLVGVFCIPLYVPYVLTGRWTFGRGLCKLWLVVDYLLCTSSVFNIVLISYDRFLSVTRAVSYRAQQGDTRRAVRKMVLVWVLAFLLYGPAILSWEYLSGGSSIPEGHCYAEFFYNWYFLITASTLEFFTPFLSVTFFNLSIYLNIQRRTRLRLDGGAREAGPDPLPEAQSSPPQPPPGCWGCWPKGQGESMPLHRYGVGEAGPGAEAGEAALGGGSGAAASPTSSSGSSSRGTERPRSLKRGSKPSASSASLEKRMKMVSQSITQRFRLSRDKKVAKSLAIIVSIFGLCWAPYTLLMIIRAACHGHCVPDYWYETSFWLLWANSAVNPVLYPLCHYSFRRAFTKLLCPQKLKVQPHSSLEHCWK

In assay [1], `CN(C(=O)/C=C/c1ccc(Cc2c[nH]cn2)cc1)c1ccc(Cl)cc1` [Compound 4] displayed an inhibitory constant (Ki) of 45 nM.

`COc1ccc(CCNC(=O)/C=C/c2ccc(Cc3c[nH]cn3)cc2)cc1` [Compound 11]: the affinity in assay [1], expressed as Ki, was 7 nM.

`O=C(/C=C/c1ccc(Cc2c[nH]cn2)cc1)NCc1ccc(Cl)cc1` [Compound 2]: the Ki in assay [1] amounted to 23 nM.

`O=C(/C=C/c1ccc(Cc2c[nH]cn2)cc1)NCCc1ccsc1` [Compound 15] showed a Ki in assay [1] of 12 nM.

As to `O=C(/C=C/c1ccc(Cc2c[nH]cn2)cc1)NCCc1ccccc1Cl` [Compound 19], the Ki in assay [1] is 12 nM.

The compound `O=C(/C=C/c1ccc(Cc2c[nH]cn2)cc1)NCCc1cccnc1` [Compound 17] yielded a Ki in assay [1] of 190 nM.

In assay [1], `O=C(/C=C/c1ccc(Cc2c[nH]cn2)cc1)Nc1cc(Cl)cc(Cl)c1` [Compound 30] returned a Ki of 12 nM.

In assay [1], `O=C(/C=C/c1ccc(Cc2c[nH]cn2)cc1)NCCc1ccc(Cl)cc1Cl` [Compound 28] had an inhibition constant Ki of 36 nM.

In assay [1], `O=C(/C=C/c1ccc(Cc2c[nH]cn2)cc1)NC1CCCCC1` [Compound 7] gave an inhibition constant (Ki) of 26 nM.

`O=C(/C=C/c1ccc(Cc2c[nH]cn2)cc1)Nc1cccc(Cl)c1` [Compound 31]: in assay [1], the Ki came out at 4 nM.

Take `S=C(NC1CCCCC1)N1CCC(c2cnc[nH]2)CC1` [thioperamide]: in assay [2], the “duration of each phase of convulsion” value is “decreased” and the electroconvulsive threshold entry is on record as “raised”.

Compound `O=C(/C=C/c1ccc(Cc2c[nH]cn2)cc1)NCCc1cccc(F)c1` [Compound 16] returned a Ki in assay [1] of 10 nM.

The compound `O=C(/C=C/c1ccc(Cc2c[nH]cn2)cc1)Nc1cccc(OC(F)(F)F)c1` [Compound 37] yielded an inhibition constant Ki in assay [1] of 8 nM.

As for `O=C(/C=C/c1ccc(Cc2c[nH]cn2)cc1)NCCc1cccc(Cl)c1` [Compound 8], in assay [1], the affinity corresponds to a Ki of 11 nM.

`O=C(/C=C/c1ccc(Cc2c[nH]cn2)cc1)NCCc1ccccc1` [Compound 29]: in assay [1], the Ki worked out at 17 nM.

In turn, `O=C(/C=C/c1ccc(Cc2c[nH]cn2)cc1)NCc1ccc2ccccc2c1` [Compound 26] registered an inhibition constant Ki in assay [1] of 200 nM.

For `O=C(/C=C/c1ccc(Cc2c[nH]cn2)cc1)Nc1ccc(Cl)cc1` [Compound 1], the Ki in assay [1] was found to be 2 nM.

On to `O=C(/C=C/c1ccc(Cc2c[nH]cn2)cc1)NCCc1c[nH]c2ccccc12` [Compound 12], for which, in assay [1], the Ki stood at 45 nM.

As to `O=C(/C=C/c1ccc(Cc2c[nH]cn2)cc1)Nc1ccc(OC(F)(F)F)cc1` [Compound 38], affinity in assay [1] was put at a Ki of 10 nM.

The compound `O=C(/C=C/c1ccc(Cc2c[nH]cn2)cc1)NCc1ccco1` [Compound 21] returned a Ki in assay [1] of 110 nM.

Turning to `N#Cc1cccc(NC(=O)/C=C/c2ccc(Cc3c[nH]cn3)cc2)c1` [Compound 32], affinity in assay [1] was put at a Ki of 4 nM.

As for `O=C(/C=C/c1ccc(Cc2c[nH]cn2)cc1)Nc1cccc(F)c1` [Compound 35], the Ki in assay [1] amounted to 1 nM.

In the case of `O=C(/C=C/c1ccc(Cc2c[nH]cn2)cc1)NCCc1ccc(Cl)cc1` [Compound 3], the affinity in assay [1] corresponds to a Ki of 7 nM.

The compound `O=C(/C=C/c1ccc(Cc2c[nH]cn2)cc1)c1ccc(Cl)cc1` [Compound 25] gave an inhibition constant Ki in assay [1] of 400 nM.

Regarding `CC(CNC(=O)/C=C/c1ccc(Cc2c[nH]cn2)cc1)c1ccccc1` (stereo not drawn) [Compound 10], in assay [1], the affinity corresponds to a Ki of 19 nM.

As to `CN1CCCC1CCNC(=O)/C=C/c1ccc(Cc2c[nH]cn2)cc1` (stereo not drawn) [Compound 27], in assay [1], the Ki was 1000 nM.

For `O=C(/C=C/c1ccc(Cc2c[nH]cn2)cc1)Nc1ccc(F)cc1` [Compound 36], the affinity in assay [1] corresponds to a Ki of 5 nM.

In assay [1], `CN(CCc1ccc(Cl)cc1)C(=O)/C=C/c1ccc(Cc2c[nH]cn2)cc1` [Compound 5] had a Ki of 35 nM.

On to `O=C(/C=C/c1ccc(Cc2c[nH]cn2)cc1)NCCCN1CCCC1` [Compound 20], for which the affinity in assay [1] corresponds to a Ki of 580 nM.

Regarding `CC(CCc1ccccc1)NC(=O)/C=C/c1ccc(Cc2c[nH]cn2)cc1` (stereo not drawn) [Compound 23], in assay [1], the inhibition constant Ki came out at 37 nM.

`Cc1ccc(CCNC(=O)/C=C/c2ccc(Cc3c[nH]cn3)cc2)cc1` [Compound 22] displayed a Ki in assay [1] of 6 nM.

Consider `CC(Cc1ccc(Cl)cc1)NC(=O)/C=C/c1ccc(Cc2c[nH]cn2)cc1` (stereo not drawn) [Compound 9], for which the inhibitory constant (Ki) in assay [1] was 10 nM.

As to `O=C(/C=C/c1ccc(Cc2c[nH]cn2)cc1)Nc1ccccc1` [Compound 6], the Ki in assay [1] is 2 nM.

On to `Cn1cnc(Cc2ccc(/C=C/C(=O)Nc3ccc(Cl)cc3)cc2)c1` [Compound 13], for which the Ki in assay [1] stood at 270 nM.

`O=C(/C=C/c1ccc(Cc2c[nH]cn2)cc1)NCCc1ccccc1F` [Compound 18] registered an inhibition constant Ki in assay [1] of 10 nM.

Take `Cc1cc(C)cc(NC(=O)/C=C/c2ccc(Cc3c[nH]cn3)cc2)c1` [Compound 34]: the inhibition constant Ki in assay [1] came out at 2 nM.

In assay [1], `O=C(/C=C/c1ccc(Cc2c[nH]cn2)cc1)NC1CCCc2ccccc21` (stereo not drawn) [Compound 24] returned a Ki of 220 nM.

As for `COc1cccc(NC(=O)/C=C/c2ccc(Cc3c[nH]cn3)cc2)c1` [Compound 33], affinity in assay [1] was put at a Ki of 3 nM.

In general, Ki refers to the equilibrium dissociation constant of an inhibitor or competing ligand from its target.

Values taken from patent publication US6034251A, “Phenyl-alkyl-imidazoles” (Schering Corporation, priority 1998, dated 2000).
